Square brackets hold non-standard residues; d marks the D form. Peptide text beside a SMILES is read from it.
What was measured:
BALB/c male mice = experiment: Antinociceptive activity, tail flick test with heat radiation, intragastral or intraperitoneal; type: in vivo
Description: For estimation of oral activity of novel cyclopeptides of the present invention, the “tail flick” test was used. The results were compared with those obtained using intraperitoneal administration.
Antinociceptive activity of the peptides of the present invention was assessed in experiments on BALB/c male mice weighing 22 to 24 g. The peptides were dissolved in saline and administered intraperitoneally or intragastrally.
The “Tail flick” test (D'Amour, F. E. et al. “A Method for Determining Loss of Pain Sensation”, J. Pharmacol. Exp. Ther., Vol. 72, Pages 74 to 79, 1941) was performed on an analgesimeter type 812, Hugo Sachs Electronick KG. Antinociceptive activity was defined as the absence of tail flick response on stimulation with a focused bundle of heat radiation with 6 sec at baseline response of 2.0-3.0 seconds.
Statistical treatment of the results was carried out by the Student's paired t-test.

mice F1(CBAxC57D16) = experiment: Analgesic activity, tail flick test, water 48° C., intraperitoneal; type: in vivo; conditions: Table 10; for Initial sensitivity level: before injection
Description: Two hundred and twenty mice F1(CBAxC57D16) first generation hybrids were used for testing of analgesic activity using the “tail flick” test. The water temperature was at 48° C. The maximal effect was for the period of 30 seconds. All peptides were injected intraperitoneally in the doses of 5, 10 or 20 mg/kg. Analgesic effect was estimated in the time interval of 15 to 120 min after peptide injection. Student's t-criterion was used for statistical calculations of the results. Statistical significance were at the level of p≦0.05.

[1] = target: μ-receptor (isolated guinea pig ileum, GPI) (Cavia porcellus, UniProt P97266); experiment: Peripheral opioid activity: inhibition of electrically-induced contractions of isolated guinea pig ileum (GPI); conditions: for Value of pD2 (M ± m): negative logarithm of EC50; for EC50: read-out: Median EC50 in M, concentration reducing contraction amplitude by 50%, 5 replications
Sequence of μ-receptor (isolated guinea pig ileum, GPI) (P97266 whole entry): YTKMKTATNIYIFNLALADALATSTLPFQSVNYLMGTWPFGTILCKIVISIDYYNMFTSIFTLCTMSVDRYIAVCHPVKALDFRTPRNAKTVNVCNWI
Description: The segment of GPI about 1 cm long was placed into a 10-ml organ bath containing Krebs solution at 34° C. […] Resting tension of the organ was 1 g. The segment of GPI was stimulated by single pulses duration 1 ms with 0.1 Hz at 80 V. The solution with isolated organs was constantly aerated. The contractions were recorded in an isometrical mode by a sensor K 30 (Hugo Sachs Elektronic KG) with paper register Rikadenki-series (Japan).
The substances tested were dissolved in distilled water and added cumulatively to the organ bath at a volume of 5 to 30 mcl. Each subsequent substance was added after the isolated organs were washed 3 or 4 times for 12-15 min. On the basis of the data obtained, dose-effects curves were plotted and the activity of substances was expressed by IC50 or pD2. The pD2 index was equal to a negative decimal logarithm of the substance concentration causing a 50% of the maximal effect.
New dermorphin analogues were tested in the standard model of Guinea pig ileum binding test.
For confirmation of opioid activity, the specific antagonist naloxson was used in concentration of 10^−5M. Each molecule was tested in 5 independent replications and relative activity was calculated as negative logarithm of EC50 (pD2).

[2] = system: hemopoietic precursor cells; experiment: Exogenous spleen colonies from bone marrow irradiated ex vivo with 1 Gy; type: in vivo
Description: In this study, the method of exogenous spleen colonies was applied. A suspension of intact bone marrow cells was irradiated ex vivo in the dose of 1 Gy. Different doses of Neogen or cyclic peptides were injected IP, 1M, subcutaneous or introduced per os to lethally irradiated recipients within an hour after the injection of irradiated bone marrow. Colonies were counted on day 8. All data in each group was the mean of three tests.

[3] = Table 11, oral 50 mg/kg group, before administration
[4] = Table 12, intraperitoneal 10 mg/kg group, before injection
[5] = Table 12, intraperitoneal 10 mg/kg, 15 min, cut-off 6 sec

Molecule	Initial sensitivity level, mean (BALB/c male mice; [3]) [s]	Initial sensitivity level, mean (BALB/c male mice; [4]) [s]	Effect duration (BALB/c male mice; [5]) [s]	Initial sensitivity level (mice F1(CBAxC57D16); 10 mg/kg group) [s]	Effect duration (mice F1(CBAxC57D16); 10 mg/kg i.p., 15 min) [s]	Effect duration (mice F1(CBAxC57D16); 10 mg/kg i.p., 30 min) [s]	Effect duration (mice F1(CBAxC57D16); 10 mg/kg i.p., 45 min) [s]	Effect duration (mice F1(CBAxC57D16); 10 mg/kg i.p., 60 min) [s]	Effect duration (mice F1(CBAxC57D16); 10 mg/kg i.p., 90 min) [s]	Effect duration (mice F1(CBAxC57D16); 10 mg/kg i.p., 120 min) [s]	Initial sensitivity level (mice F1(CBAxC57D16); 20 mg/kg group) [s]	Effect duration (mice F1(CBAxC57D16); 20 mg/kg i.p., 15 min) [s]	Effect duration (mice F1(CBAxC57D16); 20 mg/kg i.p., 30 min) [s]	Effect duration (mice F1(CBAxC57D16); 20 mg/kg i.p., 45 min) [s]	Effect duration (mice F1(CBAxC57D16); 20 mg/kg i.p., 60 min) [s]	Effect duration (mice F1(CBAxC57D16); 20 mg/kg i.p., 90 min) [s]	Effect duration (mice F1(CBAxC57D16); 20 mg/kg i.p., 120 min) [s]	Value of pD2 (M ± m) [1]	EC50 [1] [nM]	other results
Cyclo-[L-Lys(H-Tyr-D-Ala-Phe-D-Ala-Tyr-Pro-Ser)-L-Glu(L-Trp-OH)]	2.2 ± 0.1	2.1 ± 0.1	4.1 ± 0.4	3.7 ± 0.2	6.8 ± 0.6	6.3 ± 0.7	8.4 ± 1.4	7.7 ± 1.7	6.7 ± 1.0	4.6 ± 0.3	3.4 ± 0.2	7.8 ± 0.5	8.3 ± 0.8	8.7 ± 1.2	9.5 ± 1.2	9.7 ± 1.3	8.2 ± 1.7			
C[C@@H](NC(=O)[C@H](Cc1ccccc1)NC(=O)[C@@H](C)NC(=O)[C@H](Cc1ccc(O)cc1)NC(=O)[C@@H](N)CCCNC(=N)N)C(=O)O [Compound 53, H-Arg-Tyr-D-Ala-Phe-D-AlaOH] (H-RY[dA]F[dA]-OH)		2.4 ± 0.1	2.7 ± 0.1															6.06 ± 0.12	1000	
CNC(=O)[C@H](CO)NC(=O)[C@@H]1CCCN1C(=O)[C@H](Cc1ccc(O)cc1)NC(=O)[C@@H](C)NC(=O)[C@H](Cc1ccccc1)NC(=O)[C@@H](C)NC(=O)[C@@H](N)Cc1ccc(O)cc1 [Compound 50, H-Tyr-D-Ala-Phe-D-Ala-Tyr-Pro-Ser-NH-CH3, reference compound] (H-Y[dA]F[dA]YPS-NHMe)	2.6 ± 0.1	2.0 ± 0.1	3.6 ± 0.7	2.9 ± 0.2	5.9 ± 0.7	10.7 ± 0.8	12.2 ± 2.6	7.2 ± 1.2	6.9 ± 1.4	3.7 ± 0.4								7.95 ± 0.07	9.5	Effect duration (BALB/c male mice; Table 11, oral 50 mg/kg, 15 min, cut-off 6 sec): 3.3 ± 0.6 s; Effect duration (BALB/c male mice; Table 11, oral 50 mg/kg, 30 min): 2.3 ± 0.1 s; Effect duration (BALB/c male mice; Table 11, oral 50 mg/kg, 90 min): 4.3 ± 0.6 s; Initial sensitivity level (mice F1(CBAxC57D16); 5 mg/kg group): 3.0 ± 0.1 s; Effect duration (mice F1(CBAxC57D16); 5 mg/kg i.p., 15 min after injection): 9.0 ± 1.7 s; Effect duration (mice F1(CBAxC57D16); 5 mg/kg i.p., 30 min): 10.3 ± 2.6 s; Effect duration (mice F1(CBAxC57D16); 5 mg/kg i.p., 45 min): 14.3 ± 3.7 s; Effect duration (mice F1(CBAxC57D16); 5 mg/kg i.p., 60 min): 10.8 ± 1.9 s; Effect duration (mice F1(CBAxC57D16); 5 mg/kg i.p., 90 min): 6.4 ± 1.5 s; Effect duration (mice F1(CBAxC57D16); 5 mg/kg i.p., 120 min): 3.5 ± 0.2 s
Cyclo-[L-Lys(H-Tyr-D-Ala-Phe-D-Ala-Tyr-Pro-Ser)-L-Glu(L-Trp-NH2)]	2.7 ± 0.1	2.1 ± 0.1	3.9 ± 0.8	3.2 ± 0.3	11.6 ± 1.7	15.5 ± 1.6	15.7 ± 1.2	13.0 ± 1.5	9.9 ± 1.5	6.8 ± 0.5	3.0 ± 0.2	1.4 ± 1.6	18.1 ± 2.3	16.8 ± 2.2	12.7 ± 1.8	11.7 ± 1.2	6.3 ± 0.6			
COC(=O)[C@H](Cc1c[nH]c2ccccc12)NC(=O)CC[C@@H]1NC(=O)[C@H](C)NC1=O [Compound 16, Cyclo-L-Ala-L-Glu-(L-Trp-OMe)]																				% stimulation ([2]; 100 μg/kg per/os): 74.8%; Colony count ([2]; 100 μg/kg per/os): 8.9 ± 0.5; % stimulation ([2]; 100 μg/kg s/c): 67.2%; Colony count ([2]; 100 μg/kg s/c): 8.0 ± 0.5

From patent publication US8637521B2, “Substituted piperazin-2,5-diones and their use as multifunctional bioactive compounds” (priority 2006, dated 2014)
